Laboratory results from patent US20240262803A1, “COMPOUNDS, COMPOSITIONS AND METHODS OF TREATING DISORDERS” (Chungdu Anticancer Bioscience Ltd, priority 2021, published 2024).
Where two headings read alike, the source gives them in different places.

Key:
Type in all cases: cell-based
[1] = test system: gastric cancer cell line NCI-N87; assay: MTT assay of cellular proliferation, NCI-N87; details: Homo sapiens, read-out: EC50: Concentration that inhibits 50% of proliferation
Protocol: (§1) Six lung cancer cell lines (NCI-H23, NCI-H460, NCI-H596, NCI-H2170, Calu-6 and A549), two colon cancer cell lines (HCT116 and SW460), one breast cancer cell line MDA-MB-231, one gastric cancer cell line NCI-N87, one prostate cancer cell line DU145, one cervical cancer cell line Hela, and one glioblastoma cell line T98G were obtained from ATCC. The T2 HCC cell line was derived from a mouse liver cancer model initiated by a transgene of MYC (Reference). All cell lines were cultured in DMEM (Gibco, Cleveland, TN, USA) supplemented with 5% fetal bovine serum (Gibco), penicillin (100 U/mL)-streptomycin (100 μg/mL) (Gibco, Cat. No. 15140-122), 2 mM L-glutamine (Gibco, 200 mM solution, Cat. No. 25030081), and 1 mM sodium pyruvate (Gibco, 100 mM solution, Cat. No. 11360070) at 37° C. in a humidified incubator that was maintained at 5% CO2.
(§2) The MTT assay measures cellular metabolic activity as a proxy for cell viability and involves the conversion of the water-soluble yellow dye MTT [3-(4,5-dimethylthiazol-2-yl)-2,5-diphenyltetrazolium bromide] into an insoluble purple formazan by the action of mitochondrial reductase. Formazan is then solubilized and its concentration is determined by measuring the optical density (OD) value at a wavelength of 570 nm. The value is in proportional to the number of live cells with excellent linearity up to ˜10^6 cells per well. The MTT assay was used to determine the EC50 value, the concentration of a compound that leads to 50% inhibition of cellular proliferation. Briefly, cells were split when growing to the mid-Log phase. Cells in 100 μL of culture medium were seeded into each well of 96-well microplates and cultivated for 15˜24 hours to reach a confluence of 20˜30% and were then exposed to drugs at concentrations ranging from 1 nM to 10 μM. At the endpoint, 20 μL of a MTT stock solution in DMSO (5 mg/mL) was added to each well that contains […] of DMEM. The microplates were left in the cell culture incubator for 3˜4 h before subjected to solubilization and determination of formazan at A570 in a microplate reader (BioTek ELX808iu). […] Therefore, these compounds might hold a broad utility in the treatment of a large variety of human malignancies.

[2] = test system: breast cancer cell line MDA-MB-231; assay: MTT assay of cellular proliferation, MDA-MB-231; details: Homo sapiens, read-out: EC50: Concentration that inhibits 50% of proliferation
Protocol: as §1, §2

[3] = test system: liver cancer cell line T2 HCC; assay: MTT assay of cellular proliferation, T2 HCC; details: Mus musculus, read-out: EC50: Concentration that inhibits 50% of proliferation
Protocol: as §1, §2

[4] = test system: cervical cancer cell line Hela; assay: Minimal effective concentration that elicits polyploidy, Hela; details: Homo sapiens, read-out: MECP: Minimal effective concentration that elicits polyploidy
[5] = test system: colon cancer cell line SW460; assay: MTT assay of cellular proliferation, SW460; details: Homo sapiens, SW480; read-out: EC50: Concentration that inhibits 50% of proliferation
Protocol: as §1, §2

[6] = test system: breast cancer cell line MDA-MB-231; assay: Minimal effective concentration that elicits polyploidy, MDA-MB-231; details: Homo sapiens, read-out: MECP: Minimal effective concentration that elicits polyploidy
RPEMYC^H2B-GFP cells [7] = assay: Mechanism-informed phenotypic screening assay (mitotic arrest, polyploidy; GE IN-Cell Analyzer 2000); details: 20 nM to 20 μM, 24, 48 or 72 hours, read-out: Min. Effective conc. for polyploidy (≥5%)
Protocol: We have Previously Developed a Mechanism-Informed Phenotypic Screening Assay to identify novel antimitotic agents (Li et al. 2019). Equipped with a prior understanding of the versatile functions of the chromosomal passenger protein (CPP) complex in orchestrating karyokinesis and cytokinesis, the screening assay is to score for phenotypes typically seen when the CPP complex is disabled. Specifically, the parameters for a positive hit are a temporary elevation of mitotic index (MI) at 24 hours of drug treatment and an accumulation of polyploid cells at 48 hours of drug treatment, indicative of mitotic arrest and cytokinetic failure respectively. These parameters exclude compounds that elicit only a prolonged arrest of cells in mitosis, a phenotype typically provoked by spindle toxins. The screening procedure is briefly summarized here. RPEMYC^H2B-GFP cells engineered to express a Histone 2B-EGFP fusion protein were passaged as batches of 96-well plates, 18-24 hours before exposure to the chemical compounds of the present disclosure at concentrations from 20 nM to 20 μM. At 24, 48 or 72 hours after initiation of treatment, cells were analyzed for either an arrest in mitosis or a change in DNA content by GE IN-Cell Analyzer 2000. As set forth in table 2 below, a value of greater than or equal to […] and less than or equal to 1.0 μM is marked e “A”; a value greater than […] and less than or equal to 10.0 μM is marked “B”; a value greater than 10.0 μM and less than or equal to 30.0 μM is marked “C”; and a value greater than 30.0 μM is marked “D.”

[8] = test system: cervical cancer cell line Hela; assay: MTT assay of cellular proliferation, Hela; details: Homo sapiens, read-out: EC50: Concentration that inhibits 50% of proliferation
Protocol: as §1, §2

[9] = test system: lung cancer cell line A549; assay: Minimal effective concentration that elicits polyploidy, A549; details: Homo sapiens, read-out: MECP: Minimal effective concentration that elicits polyploidy
[10] = test system: liver cancer cell line T2 HCC; assay: Minimal effective concentration that elicits polyploidy, T2 HCC; details: Mus musculus, read-out: MECP: Minimal effective concentration that elicits polyploidy
[11] = test system: colon cancer cell line HCT116; assay: Minimal effective concentration that elicits polyploidy, HCT116; details: Homo sapiens, HCT-116, read-out: MECP: Minimal effective concentration that elicits polyploidy
[12] = test system: gastric cancer cell line NCI-N87; assay: Minimal effective concentration that elicits polyploidy, NCI-N87; details: Homo sapiens, read-out: MECP: Minimal effective concentration that elicits polyploidy
[13] = test system: colon cancer cell line HCT116; assay: MTT assay of cellular proliferation, HCT116; details: Homo sapiens, HCT-116, read-out: EC50: Concentration that inhibits 50% of proliferation
Protocol: as §1, §2

[14] = test system: lung cancer cell line NCI-H23; assay: Minimal effective concentration that elicits polyploidy, NCI-H23; details: Homo sapiens, read-out: MECP: Minimal effective concentration that elicits polyploidy
RPEMYC^H2B-GFP cells [15] = assay: Mechanism-informed phenotypic screening assay (mitotic arrest, polyploidy; GE IN-Cell Analyzer 2000); details: 20 nM to 20 μM, 24, 48 or 72 hours, read-out: Mitotic Arrest (≥5%)
[16] = test system: lung cancer cell line A549; assay: MTT assay of cellular proliferation, A549; details: Homo sapiens, read-out: EC50: Concentration that inhibits 50% of proliferation
Protocol: as §1, §2

[17] = test system: lung cancer cell line NCI-H23; assay: MTT assay of cellular proliferation, NCI-H23; details: Homo sapiens, read-out: EC50: Concentration that inhibits 50% of proliferation
Protocol: as §1, §2

SW480 = assay: Minimal effective concentration that elicits polyploidy, SW480; details: Homo sapiens, read-out: MECP: Minimal effective concentration that elicits polyploidy

Row | EC50 [1] [µM] | EC50 [2] [µM] | EC50 [3] [µM] | EC50 [5] [µM] | EC50 [8] [µM] | EC50 [13] [µM] | EC50 [16] [µM] | EC50 [17] [µM] | Structure (SMILES) | minimal effective concentration [4] [µM] | minimal effective concentration [6] [µM] | minimal effective concentration (RPEMYC^H2B-GFP cells [7]) [µM] | minimal effective concentration [9] [µM] | minimal effective concentration [10] [µM] | minimal effective concentration [11] [µM] | minimal effective concentration [12] [µM] | minimal effective concentration [14] [µM] | minimal effective concentration (RPEMYC^H2B-GFP cells [15]) [µM] | minimal effective concentration (SW480) [µM]
1 | 0.001 to 1 | 0.001 to 1 | 0.001 to 1 | 0.001 to 1 | 0.001 to 1 | 0.001 to 1 | 0.001 to 1 | 0.001 to 1 | CNC(=O)c1cc(Oc2ncccc2-c2ccncc2)cc(C(F)(F)F)c1 [Compound 8, 3-([3,4′-bipyridin]-2-yloxy)-N-methyl-5-(trifluoromethyl)benzamide] | 0.001 to 1 | 0.001 to 1 | 1 | 0.001 to 1 | 0.001 to 1 | 0.001 to 1 | 0.001 to 1 | 0.001 to 1 | 1 | 0.001 to 1
2 | 0.001 to 1 | 0.001 to 1 | 0.001 to 1 | 0.001 to 1 | 0.001 to 1 | 0.001 to 1 | 0.001 to 1 | 0.001 to 1 | COc1cc(Oc2ncccc2-c2ccncc2)cc(-n2cncn2)c1 [Compound 12, 2-(3-methoxy-5-(1H-1,2,4-triazol-1-yl)phenoxy)-3,4′-bipyridine] | 0.001 to 1 | 0.001 to 1 | 1 | 0.001 to 1 | 0.001 to 1 | 0.001 to 1 | 0.001 to 1 | 0.001 to 1 | 1 | 0.001 to 1
3 | 0.001 to 1 | 0.001 to 1 | 0.001 to 1 | 0.001 to 1 | 0.001 to 1 | 0.001 to 1 | 0.001 to 1 | 0.001 to 1 | COc1cc(Oc2ncccc2-c2ccnc(C)c2)cc(C(F)(F)F)c1 [Compound 40, 2-(3-methoxy-5-(trifluoromethyl)phenoxy)-2′-methyl-3,4′-bipyridine] | 0.001 to 1 | 0.001 to 1 | 1 | 0.001 to 1 | 0.001 to 1 | 0.001 to 1 | 0.001 to 1 | 0.001 to 1 | 1 | 0.001 to 1
4 | 0.001 to 1 | 0.001 to 1 | 0.001 to 1 | 0.001 to 1 | 0.001 to 1 | 0.001 to 1 | 0.001 to 1 | 0.001 to 1 | CNC(=O)c1cc(OC)cc(Oc2ncccc2-c2ccnc(C)c2)c1 [Compound 36, 3-methoxy-N-methyl-5-((2′-methyl-[3,4′-bipyridin]-2-yl)oxy)benzamide] | 0.001 to 1 | 0.001 to 1 | 1 | 0.001 to 1 | 0.001 to 1 | 0.001 to 1 | 0.001 to 1 | 0.001 to 1 | 1 | 0.001 to 1
5 | 0.001 to 1 | 0.001 to 1 | 0.001 to 1 | 0.001 to 1 | 0.001 to 1 | 0.001 to 1 | 0.001 to 1 | 0.001 to 1 | CCOc1cc(Oc2ncccc2-c2ccnc(C)c2)cc(C(=O)NC)c1 [Compound 38, 3-ethoxy-N-methyl-5-((2′-methyl-[3,4′-bipyridin]-2-yl)oxy)benzamide] | 0.001 to 1 | 0.001 to 1 | 1 | 0.001 to 1 | 0.001 to 1 | 0.001 to 1 | 0.001 to 1 | 0.001 to 1 | 1 | 0.001 to 1
6 | 0.001 to 1 | 0.001 to 1 | 0.001 to 1 | 0.001 to 1 | 0.001 to 1 | 0.001 to 1 | 0.001 to 1 | 0.001 to 1 | COc1cc(NC(C)=O)cc(Oc2ncccc2-c2ccncc2)c1 [Compound 13, N-(3-([3,4′-bipyridin]-2-yloxy)-5-methoxyphenyl)acetamide] | 0.001 to 1 | 0.001 to 1 | 1 | 0.001 to 1 | 0.001 to 1 | 0.001 to 1 | 0.001 to 1 | 0.001 to 1 | 1 | 0.001 to 1
7 | 0.001 to 1 | 0.001 to 1 | 0.001 to 1 | 0.001 to 1 | 0.001 to 1 | 0.001 to 1 | 0.001 to 1 | 0.001 to 1 | COc1cc(Oc2ncccc2-c2ccnc(C)c2)cc(-n2cccn2)c1 [Compound 41, 2-(3-methoxy-5-(1H-pyrazol-1-yl)phenoxy)-2′-methyl-3,4′-bipyridine] | 0.001 to 1 | 0.001 to 1 | 1 | 0.001 to 1 | 0.001 to 1 | 0.001 to 1 | 0.001 to 1 | 0.001 to 1 | 1 | 0.001 to 1
